{"source": "patent US6743925B1", "about": "“Nitroimidazole derivative and diagnostic imaging agent containing the same” (Pola Chemical Industries, Inc., priority 1999, dated 2004)", "tested_on": "cancer-bearing mice (WHT/Ht albino mice), squamous-cell carcinoma and fibrosarcoma", "test": "Radiation intensity of each organ after intravenous injection to cancer-bearing mice", "type": "in vivo", "description": "Compound 4 of Example 4 was intravenously injected to cancer-bearing mice (WHT/Ht albino mice) (3 mice per group). Systemic frozen sections of each mouse were prepared 10, 30, 60, 120, and 150 minutes after intravenous injection, and the radiation intensity of each organ was measured. Squamous-cell carcinoma and fibrosarcoma were employed as cancer sources. When the sections was prepared, blood was collected separately, and the ratio of radiation intensity in each organ to that in blood was obtained.", "key": {"[1]": {"conditions": "10 min. after intravenous injection"}, "[2]": {"conditions": "30 min. after intravenous injection"}, "[3]": {"conditions": "60 min. after intravenous injection"}, "[4]": {"conditions": "120 min. after intravenous injection"}, "[5]": {"conditions": "150 min. after intravenous injection"}}, "data": [{"molecule": "O=[N+]([O-])c1nccn1COC(CO)C[18F]", "note": "(stereo not shown) [Compound 4, 1-[2-fluoro(^18F)-1-(hydroxymethyl)ethoxy]methyl-2-nitroimidazole]", "values": [{"measurement": "radiation intensity, Blood", "setting": "[1]", "result": 2.222}, {"measurement": "radiation intensity, Bone", "setting": "[1]", "result": 1.157}, {"measurement": "radiation intensity, Brain", "setting": "[1]", "result": 1.168}, {"measurement": "radiation intensity, Fibrosarcoma", "setting": "[1]", "result": 1.584}, {"measurement": "radiation intensity, Heart", "setting": "[1]", "result": 1.721}, {"measurement": "radiation intensity, Intestine", "setting": "[1]", "result": 1.697}, {"measurement": "radiation intensity, Kidney", "setting": "[1]", "result": 7.935}, {"measurement": "radiation intensity, Liver", "setting": "[1]", "result": 10.300}, {"measurement": "radiation intensity, Lung", "setting": "[1]", "result": 2.151}, {"measurement": "radiation intensity, Muscle", "setting": "[1]", "result": 1.576}, {"measurement": "radiation intensity, Squamous carcinoma", "setting": "[1]", "result": 2.192}, {"measurement": "radiation intensity, Testis", "setting": "[1]", "result": 0.861}, {"measurement": "ratio of radiation intensity, Fibrosarcoma/blood", "setting": "[1]", "result": 0.697}, {"measurement": "ratio of radiation intensity, Squamous carcinoma/blood", "setting": "[1]", "result": 0.893}, {"measurement": "radiation intensity, Blood", "setting": "[2]", "result": 1.068}, {"measurement": "radiation intensity, Bone", "setting": "[2]", "result": 0.617}, {"measurement": "radiation intensity, Brain", "setting": "[2]", "result": 0.815}, {"measurement": "radiation intensity, Fibrosarcoma", "setting": "[2]", "result": 1.319}, {"measurement": "radiation intensity, Heart", "setting": "[2]", "result": 0.929}, {"measurement": "radiation intensity, Intestine", "setting": "[2]", "result": 0.767}, {"measurement": "radiation intensity, Kidney", "setting": "[2]", "result": 5.667}, {"measurement": "radiation intensity, Liver", "setting": "[2]", "result": 5.018}, {"measurement": "radiation intensity, Lung", "setting": "[2]", "result": 1.347}, {"measurement": "radiation intensity, Muscle", "setting": "[2]", "result": 0.742}, {"measurement": "radiation intensity, Squamous carcinoma", "setting": "[2]", "result": 1.237}, {"measurement": "radiation intensity, Testis", "setting": "[2]", "result": 0.852}, {"measurement": "ratio of radiation intensity, Fibrosarcoma/blood", "setting": "[2]", "result": 1.234}, {"measurement": "ratio of radiation intensity, Squamous carcinoma/blood", "setting": "[2]", "result": 1.012}, {"measurement": "radiation intensity, Blood", "setting": "[3]", "result": 0.379}, {"measurement": "radiation intensity, Bone", "setting": "[3]", "result": 0.244}, {"measurement": "radiation intensity, Brain", "setting": "[3]", "result": 0.308}, {"measurement": "radiation intensity, Fibrosarcoma", "setting": "[3]", "result": 0.619}, {"measurement": "radiation intensity, Heart", "setting": "[3]", "result": 0.378}, {"measurement": "radiation intensity, Intestine", "setting": "[3]", "result": 0.533}, {"measurement": "radiation intensity, Kidney", "setting": "[3]", "result": 1.856}, {"measurement": "radiation intensity, Liver", "setting": "[3]", "result": 1.692}, {"measurement": "radiation intensity, Lung", "setting": "[3]", "result": 0.596}, {"measurement": "radiation intensity, Muscle", "setting": "[3]", "result": 0.314}, {"measurement": "radiation intensity, Squamous carcinoma", "setting": "[3]", "result": 0.466}, {"measurement": "radiation intensity, Testis", "setting": "[3]", "result": 0.466}, {"measurement": "ratio of radiation intensity, Fibrosarcoma/blood", "setting": "[3]", "result": 1.634}, {"measurement": "ratio of radiation intensity, Squamous carcinoma/blood", "setting": "[3]", "result": 1.384}, {"measurement": "radiation intensity, Blood", "setting": "[4]", "result": 0.117}, {"measurement": "radiation intensity, Bone", "setting": "[4]", "result": 0.253}, {"measurement": "radiation intensity, Brain", "setting": "[4]", "result": 0.116}, {"measurement": "radiation intensity, Fibrosarcoma", "setting": "[4]", "result": 0.421}, {"measurement": "radiation intensity, Heart", "setting": "[4]", "result": 0.216}, {"measurement": "radiation intensity, Intestine", "setting": "[4]", "result": 0.56}, {"measurement": "radiation intensity, Kidney", "setting": "[4]", "result": 0.699}, {"measurement": "radiation intensity, Liver", "setting": "[4]", "result": 0.730}, {"measurement": "radiation intensity, Lung", "setting": "[4]", "result": 0.353}, {"measurement": "radiation intensity, Muscle", "setting": "[4]", "result": 0.139}, {"measurement": "radiation intensity, Squamous carcinoma", "setting": "[4]", "result": 0.133}, {"measurement": "radiation intensity, Testis", "setting": "[4]", "result": 0.412}, {"measurement": "ratio of radiation intensity, Fibrosarcoma/blood", "setting": "[4]", "result": 3.601}, {"measurement": "ratio of radiation intensity, Squamous carcinoma/blood", "setting": "[4]", "result": 2.904}, {"measurement": "radiation intensity, Blood", "setting": "[5]", "result": 0.096}, {"measurement": "radiation intensity, Bone", "setting": "[5]", "result": 0.218}, {"measurement": "radiation intensity, Brain", "setting": "[5]", "result": 0.126}, {"measurement": "radiation intensity, Fibrosarcoma", "setting": "[5]", "result": 0.351}, {"measurement": "radiation intensity, Heart", "setting": "[5]", "result": 0.186}, {"measurement": "radiation intensity, Intestine", "setting": "[5]", "result": 0.488}, {"measurement": "radiation intensity, Kidney", "setting": "[5]", "result": 0.511}, {"measurement": "radiation intensity, Liver", "setting": "[5]", "result": 0.800}, {"measurement": "radiation intensity, Lung", "setting": "[5]", "result": 0.331}, {"measurement": "radiation intensity, Muscle", "setting": "[5]", "result": 0.159}, {"measurement": "radiation intensity, Squamous carcinoma", "setting": "[5]", "result": 0.101}, {"measurement": "radiation intensity, Testis", "setting": "[5]", "result": 0.139}, {"measurement": "ratio of radiation intensity, Fibrosarcoma/blood", "setting": "[5]", "result": 3.675}, {"measurement": "ratio of radiation intensity, Squamous carcinoma/blood", "setting": "[5]", "result": 2.357}]}]}
